# Test system: MV-4-11 cells
# Test: Gene expression microarray analysis (Affymetrix PrimeView) and GSEA
# Format: cell-based, human
# Design: RFU PODN (11730768_x_at) / Fold change /veh PODN (11730768_x_at) / RFU LINC00158 (11744669_a_at) / Fold change /veh LINC00158 (11744669_a_at) / RFU DUSP10 (11751237_a_at) / Fold change /veh DUSP10 (11751237_a_at) / RFU ID3 (11757404_x_at) / Fold change /veh ID3 (11757404_x_at) / RFU PLEKHG5 (11737974_s_at) / Fold change /veh PLEKHG5 (11737974_s_at) / RFU LRRC4B (11730491_at) / Fold change /veh LRRC4B (11730491_at) / RFU GIMAP4 (11747438_a_at) / Fold change /veh GIMAP4 (11747438_a_at) / RFU KRT8 (11758183_x_at) / Fold change /veh KRT8 (11758183_x_at) / RFU CNN1 (11734310_a_at) / Fold change /veh CNN1 (11734310_a_at) / RFU VPS37D (11726825_at) / Fold change /veh VPS37D (11726825_at) / RFU C10orf10 (11716522_x_at) / Fold change /veh C10orf10 (11716522_x_at) / RFU KIR2DL2 /// KIR2DL4 /// KIR2DL5A /// KIR2DL5B /// KIR2DS1 /// KIR2DS2 /// KIR2DS3 /// KIR2DS4 /// KIR3DL3 /// KIR3DL3 /// KIR3DS1 (11738374_at) / Fold change /veh KIR2DL2 /// KIR2DL4 /// KIR2DL5A /// KIR2DL5B /// KIR2DS1 /// KIR2DS2 /// KIR2DS3 /// KIR2DS4 /// KIR3DL3 /// KIR3DL3 /// KIR3DS1 (11738374_at) / RFU C1QL1 (11718748_at) / Fold change /veh C1QL1 (11718748_at) / RFU TMPRSS4 (11747572_a_at) / Fold change /veh TMPRSS4 (11747572_a_at) / RFU HAMP (11756126_x_at) / Fold change /veh HAMP (11756126_x_at) / RFU RNFT2 (11725882_a_at) / Fold change /veh RNFT2 (11725882_a_at) / RFU NR4A2 (11747474_a_at) / Fold change /veh NR4A2 (11747474_a_at) / RFU ABCC12 (11746883_a_at) / Fold change /veh ABCC12 (11746883_a_at) / RFU TMEM136 (11760407_x_at) / Fold change /veh TMEM136 (11760407_x_at) / RFU CLDN22 /// WWC2 (11732394_at) / Fold change /veh CLDN22 /// WWC2 (11732394_at) / RFU HLA-DPB1 (11760878_x_at) / Fold change /veh HLA-DPB1 (11760878_x_at) / RFU SPINT1 (11716480_a_at) / Fold change /veh SPINT1 (11716480_a_at) / RFU GAP43 (11754022_s_at) / Fold change /veh GAP43 (11754022_s_at) / RFU A4GNT (11735810_at) / Fold change /veh A4GNT (11735810_at) / RFU PRB3 (11715151_x_at) / Fold change /veh PRB3 (11715151_x_at) / RFU TUBB4B (11761932_at) / Fold change /veh TUBB4B (11761932_at) / RFU CAPN14 (11732068_a_at) / Fold change /veh CAPN14 (11732068_a_at) / RFU TMCC2 (11721928_a_at) / Fold change /veh TMCC2 (11721928_a_at) / RFU IRGQ (11745062_a_at) / Fold change /veh IRGQ (11745062_a_at) / RFU FAM174B (11720279_a_at) / Fold change /veh FAM174B (11720279_a_at) / RFU TMPRSS4 (11748680_a_at) / Fold change /veh TMPRSS4 (11748680_a_at) / RFU FAM212B (11763350_a_at) / Fold change /veh FAM212B (11763350_a_at) / RFU PLEKHG5 (11743358_a_at) / Fold change /veh PLEKHG5 (11743358_a_at) / RFU ZSCAN30 (11745921_a_at) / Fold change /veh ZSCAN30 (11745921_a_at) / RFU CMKLR1 (11741424_a_at) / Fold change /veh CMKLR1 (11741424_a_at) / RFU LOC101060620 /// MAPK8IP1 (11723275_at) / Fold change /veh LOC101060620 /// MAPK8IP1 (11723275_at) / RFU SPTSSB (11747773_x_at) / Fold change /veh SPTSSB (11747773_x_at) / RFU PRSS12 (11739890_at) / Fold change /veh PRSS12 (11739890_at) / RFU BIN1 (11741810_x_at) / Fold change /veh BIN1 (11741810_x_at) / RFU WNT11 (11732464_a_at) / Fold change /veh WNT11 (11732464_a_at) / RFU C10orf10 (11716521_a_at) / Fold change /veh C10orf10 (11716521_a_at) / RFU C5orf56 (11738089_at) / Fold change /veh C5orf56 (11738089_at) / RFU CYB561 (11721691_x_at) / Fold change /veh CYB561 (11721691_x_at) / RFU ANKRD19P (11752326_a_at) / Fold change /veh ANKRD19P (11752326_a_at) / RFU OR2T12 /// OR2T33 /// OR2T8 (11738714_s_at) / Fold change /veh OR2T12 /// OR2T33 /// OR2T8 (11738714_s_at) / RFU VCAN (11748164_a_at) / Fold change /veh VCAN (11748164_a_at) / RFU JSRP1 (11732532_at) / Fold change /veh JSRP1 (11732532_at) / RFU KRTAP10-11 (11738290_x_at) / Fold change /veh KRTAP10-11 (11738290_x_at) / RFU MYO3A (11730013_a_at) / Fold change /veh MYO3A (11730013_a_at) / RFU EBF3 (11725865_a_at) / Fold change /veh EBF3 (11725865_a_at) / RFU CAMK2N1 (11719241_x_at) / Fold change /veh CAMK2N1 (11719241_x_at) / RFU C5orf56 (11738088_a_at) / Fold change /veh C5orf56 (11738088_a_at) / RFU OLFML3 (11715873_a_at) / Fold change /veh OLFML3 (11715873_a_at) / RFU LOC100653217 /// NTM (11731650_a_at) / Fold change /veh LOC100653217 /// NTM (11731650_a_at) / RFU MAPK11 (11762145_a_at) / Fold change /veh MAPK11 (11762145_a_at) / RFU FIZ1 (11724087_x_at) / Fold change /veh FIZ1 (11724087_x_at) / RFU OASL (11726364_x_at) / Fold change /veh OASL (11726364_x_at) / RFU SOX15 (11748057_x_at) / Fold change /veh SOX15 (11748057_x_at) / RFU CD79A (11719716_a_at) / Fold change /veh CD79A (11719716_a_at) / RFU HIST1H1D (11736915_at) / Fold change /veh HIST1H1D (11736915_at) / RFU CASKIN2 (11723855_a_at) / Fold change /veh CASKIN2 (11723855_a_at) / RFU LOC730098 (11760151_x_at) / Fold change /veh LOC730098 (11760151_x_at) / RFU OR4N2 (11742367_at) / Fold change /veh OR4N2 (11742367_at) / RFU PRRT2 (11749266_a_at) / Fold change /veh PRRT2 (11749266_a_at) / RFU SNX32 (11753110_a_at) / Fold change /veh SNX32 (11753110_a_at) / RFU CDHR5 (11726645_a_at) / Fold change /veh CDHR5 (11726645_a_at) / RFU RCAN1 (11760418_a_at) / Fold change /veh RCAN1 (11760418_a_at) / RFU FAM167A (11723789_a_at) / Fold change /veh FAM167A (11723789_a_at) / RFU FAM26E (11764081_at) / Fold change /veh FAM26E (11764081_at) / RFU ISYNA1 (11749810_s_at) / Fold change /veh ISYNA1 (11749810_s_at) / RFU ACY1 (11761880_at) / Fold change /veh ACY1 (11761880_at) / RFU 11764098_at / Fold change /veh 11764098_at / RFU SAMD14 (11745864_x_at) / Fold change /veh SAMD14 (11745864_x_at) / RFU NPB (11741838_a_at) / Fold change /veh NPB (11741838_a_at) / RFU TMPRSS6 (11731388_a_at) / Fold change /veh TMPRSS6 (11731388_a_at) / RFU KRTAP10-2 (11738614_at) / Fold change /veh KRTAP10-2 (11738614_at) / RFU ARHGAP8 /// PRR5-ARHGAP8 (11727945_x_at) / Fold change /veh ARHGAP8 /// PRR5-ARHGAP8 (11727945_x_at) / RFU KRTAP5-7 /// NADSYN1 (11734609_at) / Fold change /veh KRTAP5-7 /// NADSYN1 (11734609_at) / RFU RASL12 (11751679_a_at) / Fold change /veh RASL12 (11751679_a_at) / RFU CDKN2B (11736163_a_at) / Fold change /veh CDKN2B (11736163_a_at) / RFU PRF1 (11729649_at) / Fold change /veh PRF1 (11729649_at) / RFU, ZNF638 /// ZNF638-IT1 / Fold change vs veh, ZNF638 /// ZNF638-IT1 / RFU, PANK3 / Fold change vs veh, PANK3 / RFU, SH3YL1 / Fold change vs veh, SH3YL1 / RFU, ZEB2 / Fold change vs veh, ZEB2 / RFU, NRIP1 / Fold change vs veh, NRIP1 / RFU, PTTG1IP / Fold change vs veh, PTTG1IP / RFU, CAPN2 / Fold change vs veh, CAPN2 / RFU, MED14 / Fold change vs veh, MED14 / RFU, SNORA58 / Fold change vs veh, SNORA58 / RFU, C1orf63 / Fold change vs veh, C1orf63 / RFU, LRRFIP1 / Fold change vs veh, LRRFIP1 / RFU, NDUFAF7 / Fold change vs veh, NDUFAF7 / RFU, SLC12A2 / Fold change vs veh, SLC12A2 / RFU, IBTK / Fold change vs veh, IBTK / RFU, ESF1 / Fold change vs veh, ESF1 / Fold change vs veh, TMEM50B / RFU, TAOK1 / Fold change vs veh, TAOK1 / RFU, ACBD3 / Fold change vs veh, ACBD3 / RFU, TMA16 / Fold change vs veh, TMA16 / RFU, RWDD3 / Fold change vs veh, RWDD3 / RFU, BCAT1 / Fold change vs veh, BCAT1 / RFU, EDEM3 / Fold change vs veh, EDEM3 / RFU, TMEM33 / Fold change vs veh, TMEM33 / RFU, WDR75 / Fold change vs veh, WDR75 / RFU, AHCTF1 / Fold change vs veh, AHCTF1 / RFU, TFRC / Fold change vs veh, TFRC / RFU, ZDHHC17 / Fold change vs veh, ZDHHC17 / RFU, NOM1 / Fold change vs veh, NOM1 / RFU, ARL8B / Fold change vs veh, ARL8B / RFU, ZBTB11 / Fold change vs veh, ZBTB11 / RFU, TAMM41 / Fold change vs veh, TAMM41 / RFU, KIAA1704 /// LOC100996395 / Fold change vs veh, KIAA1704 /// LOC100996395 / RFU, ING1 / Fold change vs veh, ING1 / RFU, TRMT61B / Fold change vs veh, TRMT61B / RFU, FUBP3 / Fold change vs veh, FUBP3 / RFU, TP53 / Fold change vs veh, TP53 / RFU, TNKS2 / Fold change vs veh, TNKS2 / RFU, ZFP14 / Fold change vs veh, ZFP14 / RFU, ACTR2 / Fold change vs veh, ACTR2 / RFU, PPP3R1 / Fold change vs veh, PPP3R1 / RFU, PIK3R1 / Fold change vs veh, PIK3R1 / RFU, HNRNPA1 / Fold change vs veh, HNRNPA1 / RFU, RNF170 / Fold change vs veh, RNF170 / RFU, ZNF28 / Fold change vs veh, ZNF28 / RFU, RNGTT / Fold change vs veh, RNGTT / RFU, OGT / Fold change vs veh, OGT / RFU, BRD1 / Fold change vs veh, BRD1 / RFU, MARS / Fold change vs veh, MARS / RFU, ZNF655 / Fold change vs veh, ZNF655 / RFU, FAHD1 / Fold change vs veh, FAHD1 / RFU, BDP1 / Fold change vs veh, BDP1 / RFU, LRRCC1 / Fold change vs veh, LRRCC1 / RFU, ARID1A / Fold change vs veh, ARID1A / RFU, ZNF146 / Fold change vs veh, ZNF146 / RFU, ZNF330 / Fold change vs veh, ZNF330 / RFU, GPN3 / Fold change vs veh, GPN3 / RFU, C9orf123 / Fold change vs veh, C9orf123 / RFU, N4BP2L2 / Fold change vs veh, N4BP2L2 / RFU, ARFIP1 / Fold change vs veh, ARFIP1 / RFU, FAM179B / Fold change vs veh, FAM179B / RFU, BCL10 / Fold change vs veh, BCL10 / RFU, UHRF1BP1L / Fold change vs veh, UHRF1BP1L / RFU, BET1 / Fold change vs veh, BET1 / RFU, CNOT2 / Fold change vs veh, CNOT2 / RFU, ZNF268 / Fold change vs veh, ZNF268 / Fold change vs veh, ZNF507 / RFU, DGCR2 / Fold change vs veh, DGCR2 / RFU, WDSUB1 / Fold change vs veh, WDSUB1 / Fold change vs veh, HSP90B1 /// MIR3652 / RFU, ADSS / Fold change vs veh, ADSS / RFU, GK / Fold change vs veh, GK / RFU, ZNF148 / Fold change vs veh, ZNF148 / RFU, TAF9 / Fold change vs veh, TAF9 / RFU, SLC1A5 / Fold change vs veh, SLC1A5 / RFU, SLMO2 / Fold change vs veh, SLMO2 / RFU, ABCC4 / Fold change vs veh, ABCC4 / RFU, LOC101060439 /// RAP1B / Fold change vs veh, LOC101060439 /// RAP1B / RFU, RFX7 / Fold change vs veh, RFX7 / RFU, GTPBP10 / Fold change vs veh, GTPBP10 / RFU, CNEP1R1 / Fold change vs veh, CNEP1R1 / RFU, BIVM-ERCC5 /// ERCC5 / Fold change vs veh, BIVM-ERCC5 /// ERCC5 / RFU, ILF3 / Fold change vs veh, ILF3 / RFU 11762660_at / Fold change /veh 11762660_at / RFU VCAN (11757783_s_at) / Fold change /veh VCAN (11757783_s_at) / RFU DDX43 (11728927_at) / Fold change /veh DDX43 (11728927_at) / RFU KRT8 (11758188_x_at) / Fold change /veh KRT8 (11758188_x_at) / RFU NKD1 (11759106_at) / Fold change /veh NKD1 (11759106_at) / RFU SRD5A1 (11742802_a_at) / Fold change /veh SRD5A1 (11742802_a_at) / RFU TPSAB1 /// TPSB2 (11721975_s_at) / Fold change /veh TPSAB1 /// TPSB2 (11721975_s_at) / RFU GSTM3 (11746129_a_at) / Fold change /veh GSTM3 (11746129_a_at) / RFU IL23R (11737362_x_at) / Fold change /veh IL23R (11737362_x_at) / RFU TMEM51 (11727254_a_at) / Fold change /veh TMEM51 (11727254_a_at) / RFU PIWIL2 (11732686_x_at) / Fold change /veh PIWIL2 (11732686_x_at) / RFU ORM1 (11744905_x_at) / Fold change /veh ORM1 (11744905_x_at) / RFU CCDC152 (11743942_at) / Fold change /veh CCDC152 (11743942_at) / RFU ECM1 (11717891_a_at) / Fold change /veh ECM1 (11717891_a_at) / RFU IL23R (11748794_a_at) / Fold change /veh IL23R (11748794_a_at) / RFU TNFAIP8L3 (11732012_x_at) / Fold change /veh TNFAIP8L3 (11732012_x_at) / RFU MBOAT4 (11741988_at) / Fold change /veh MBOAT4 (11741988_at) / RFU 11764193_at / Fold change /veh 11764193_at / RFU TMEM53 (11763286_at) / Fold change /veh TMEM53 (11763286_at) / RFU MAGEB2 (11727129_at) / Fold change /veh MAGEB2 (11727129_at) / RFU TMEM200A (11744735_a_at) / Fold change /veh TMEM200A (11744735_a_at) / RFU CCDC152 (11751479_a_at) / Fold change /veh CCDC152 (11751479_a_at) / RFU FAM211A (11726209_a_at) / Fold change /veh FAM211A (11726209_a_at) / RFU RGS16 (11746705_a_at) / Fold change /veh RGS16 (11746705_a_at) / RFU VCAN (11755009_s_at) / Fold change /veh VCAN (11755009_s_at) / RFU RHOB (11743442_s_at) / Fold change /veh RHOB (11743442_s_at) / RFU RGS16 (11720943_a_at) / Fold change /veh RGS16 (11720943_a_at) / RFU RGS16 (11720944_at) / Fold change /veh RGS16 (11720944_at) / RFU, VPS4B / Fold change vs veh, VPS4B / RFU, CREB1 / Fold change vs veh, CREB1 / RFU, DNAJC13 / Fold change vs veh, DNAJC13 / RFU, GNAQ / Fold change vs veh, GNAQ / RFU, CDK5R1 / Fold change vs veh, CDK5R1 / RFU, ZRANB3 / Fold change vs veh, ZRANB3 / RFU, CUL4A / Fold change vs veh, CUL4A / RFU, CCNY / Fold change vs veh, CCNY / RFU, UFL1 / Fold change vs veh, UFL1 / RFU, COG3 / Fold change vs veh, COG3 / RFU, DIAPH2 / Fold change vs veh, DIAPH2 / RFU, SKA2 / Fold change vs veh, SKA2 / RFU, AFF3 / Fold change vs veh, AFF3 / RFU, LMF1 / Fold change vs veh, LMF1 / RFU, IPO11 / Fold change vs veh, IPO11 / RFU, DFFB / Fold change vs veh, DFFB / RFU, FOXP1 / Fold change vs veh, FOXP1 / RFU, CARD8 / Fold change vs veh, CARD8 / RFU, STRN3 / Fold change vs veh, STRN3 / RFU, ADK / Fold change vs veh, ADK / RFU, RASSF2 / Fold change vs veh, RASSF2 / RFU, WIPF1 / Fold change vs veh, WIPF1 / RFU, LARP1B / Fold change vs veh, LARP1B / RFU, RASA1 / Fold change vs veh, RASA1 / RFU, RB1 / Fold change vs veh, RB1 / RFU, PPFIA1 / Fold change vs veh, PPFIA1 / RFU, MAT2A / Fold change vs veh, MAT2A / RFU, CCT5 / Fold change vs veh, CCT5 / RFU, WDR92 / Fold change vs veh, WDR92 / RFU, CUX1 / Fold change vs veh, CUX1 / RFU, TTC7A / Fold change vs veh, TTC7A / RFU, TMEM135 / Fold change vs veh, TMEM135 / RFU, DEPTOR / Fold change vs veh, DEPTOR / RFU, CPM / Fold change vs veh, CPM / RFU, DNAJB6 / Fold change vs veh, DNAJB6 / RFU, CACNA2D3 / Fold change vs veh, CACNA2D3 / RFU, DTX4 / Fold change vs veh, DTX4 / RFU, TFCP2 / Fold change vs veh, TFCP2 / RFU, GMCL1 /// GMCL1P1 / Fold change vs veh, GMCL1 /// GMCL1P1 / RFU, AEBP2 / Fold change vs veh, AEBP2 / RFU, SNHG1 /// SNORD22 /// SNORD25 /// SNORD26 /// SNORD27 /// SNORD28 /// SNORD29 /// SNORD31 / Fold change vs veh, SNHG1 /// SNORD22 /// SNORD25 /// SNORD26 /// SNORD27 /// SNORD28 /// SNORD29 /// SNORD31 / Fold change (Aza/veh), C12orf56 (ProbeSet 11735607_a_at) / Fold change (ACY-1035/veh), C12orf56 (ProbeSet 11735607_a_at) / Fold change (Aza/veh), FGFR1OP (ProbeSet 11751329_s_at) / Fold change (ACY-1035/veh), FGFR1OP (ProbeSet 11751329_s_at) / Fold change (Aza/veh), VPS36 (ProbeSet 11739960_a_at) / Fold change (ACY-1035/veh), VPS36 (ProbeSet 11739960_a_at) / RFU SYPL1 (11715823_x_at) / Fold change /veh SYPL1 (11715823_x_at) / RFU IGFBP7 (11715501_s_at) / Fold change /veh IGFBP7 (11715501_s_at) / RFU REEP3 (11722064_at) / Fold change /veh REEP3 (11722064_at) / RFU IGLL1 (11728026_x_at) / Fold change /veh IGLL1 (11728026_x_at): dose or concentration left out as unconfirmed
# Details: MV-4-11 cells, 48 hours
smiles,measurement,value
Nc1ccc(-c2cccs2)cc1NC(=O)c1ccc2c(c1)cc(C1CC1)n2CCN1CCOCC1 [ACY-1035],Fold change /veh CNN1 (11734310_a_at),1.19
